Where two headings read alike, the source gives them in different places.
How the values were obtained:
[1] = biological target: T1, cyclin D1/cdk 4 enzyme (Homo sapiens, UniProt P11802); assay: CDK4 ELISA kinase assay (phospho-Rb ser 795 detection); format: biochemical; details: 200 μM ATP
T1 construct: made in house; host or cells: Sf9 insect cells, recombinant baculovirus
Summary of the method: (§1)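 ELISA format: plate-bound GST-Rb, 200 μM ATP, Sf9 cyclin/CDK enzyme, 1 h at 30° C; then anti-pRb Ser795 primary overnight at 4° C, HRP secondary, TMB. IC50 after no-substrate background subtraction.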

[2] = biological target: T2, cyclin E/CDK2 enzyme (Homo sapiens, UniProt P24941); assay: CDK2 ELISA kinase assay (phospho-Rb ser 795 detection); format: biochemical
T2 construct: made in house; host or cells: Sf9 insect cells, recombinant baculovirus
Summary of the method: as §1

[3] = biological target: T3, cyclin B/CDK1 enzyme (Homo sapiens, UniProt P06493); assay: CDK1 ELISA kinase assay (phospho-Rb ser 795 detection); format: biochemical
T3 construct: purchased New England BioLabs; host or cells: Sf9 insect cells, recombinant baculovirus
T3 sequence (P06493 whole entry): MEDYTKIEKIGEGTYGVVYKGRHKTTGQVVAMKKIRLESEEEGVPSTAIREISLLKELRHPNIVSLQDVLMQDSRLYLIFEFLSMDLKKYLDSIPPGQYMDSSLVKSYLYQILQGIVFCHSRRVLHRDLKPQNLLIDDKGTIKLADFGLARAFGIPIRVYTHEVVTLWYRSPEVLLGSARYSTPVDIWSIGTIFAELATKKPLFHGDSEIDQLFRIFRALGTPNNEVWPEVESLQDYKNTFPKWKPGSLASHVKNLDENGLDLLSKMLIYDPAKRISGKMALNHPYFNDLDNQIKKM
T3 sequence (P14635 whole entry partner): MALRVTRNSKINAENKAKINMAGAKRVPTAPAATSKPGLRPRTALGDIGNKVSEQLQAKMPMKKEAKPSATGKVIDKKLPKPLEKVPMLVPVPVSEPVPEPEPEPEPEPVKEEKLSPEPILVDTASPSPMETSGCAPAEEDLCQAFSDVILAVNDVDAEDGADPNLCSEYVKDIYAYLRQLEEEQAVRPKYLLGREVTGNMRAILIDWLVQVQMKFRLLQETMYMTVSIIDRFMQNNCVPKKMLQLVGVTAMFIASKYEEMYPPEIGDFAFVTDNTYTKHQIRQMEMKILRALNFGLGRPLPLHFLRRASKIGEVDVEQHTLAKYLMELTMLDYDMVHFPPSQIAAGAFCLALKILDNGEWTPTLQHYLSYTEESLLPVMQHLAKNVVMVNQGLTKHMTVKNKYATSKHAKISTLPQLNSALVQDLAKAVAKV
Summary of the method: as §1

[4] = system: BT474; assay: Cytotoxicity assay (SRB), BT474; format: cell-based; details: Homo sapiens, BT-474, 144 h, read-out: In Vitro Cellular Activity IC50 BT474
Summary of the method: (§2)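 Protein staining with sulforhodamine B after cold TCA fixation served as the survival endpoint (A540, relative to untreated cells). Before staining, cells were incubated with compound at 37 °C, 7% CO2 for 3 days, or 6 days for BT474.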

[5] = system: HCT-116; assay: Cytotoxicity assay (SRB), HCT-116; format: cell-based; details: Homo sapiens, HCT-116, 72 h, read-out: In Vitro Cellular Activity IC50 HCT116
Summary of the method: as §2

[6] = system: LoVo; assay: Cytotoxicity assay (SRB), LoVo; format: cell-based; details: Homo sapiens, LoVo, 72 h, read-out: In Vitro Cellular Activity IC50 LOVO
Summary of the method: as §2

[7] = system: MCF-7; assay: Cytotoxicity assay (SRB), MCF-7; format: cell-based; details: Homo sapiens, MCF7, 72 h, read-out: In Vitro Cellular Activity IC50 MCF-7
Summary of the method: as §2

[8] = In Vitro Enzyme Assays, read-out: CDK4 IC50
[9] = In Vitro Enzyme Assays, read-out: CDK2 IC50
[10] = In Vitro Enzyme Assays, read-out: CDK1 IC50
[11] = In Vitro Enzyme Assay, cyclin E/CDK2, read-out: CDK2 IC50

T1 sequence (P11802 whole entry, species assumed): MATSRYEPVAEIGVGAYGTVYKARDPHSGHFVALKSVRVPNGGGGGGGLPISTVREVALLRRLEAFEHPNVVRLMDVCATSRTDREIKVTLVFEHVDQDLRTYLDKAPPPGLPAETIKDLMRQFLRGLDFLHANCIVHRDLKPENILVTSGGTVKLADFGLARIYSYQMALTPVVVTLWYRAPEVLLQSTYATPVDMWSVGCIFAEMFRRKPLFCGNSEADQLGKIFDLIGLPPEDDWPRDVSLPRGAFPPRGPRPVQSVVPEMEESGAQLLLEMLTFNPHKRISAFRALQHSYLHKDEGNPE
T1 sequence (P24385 whole entry partner, species assumed): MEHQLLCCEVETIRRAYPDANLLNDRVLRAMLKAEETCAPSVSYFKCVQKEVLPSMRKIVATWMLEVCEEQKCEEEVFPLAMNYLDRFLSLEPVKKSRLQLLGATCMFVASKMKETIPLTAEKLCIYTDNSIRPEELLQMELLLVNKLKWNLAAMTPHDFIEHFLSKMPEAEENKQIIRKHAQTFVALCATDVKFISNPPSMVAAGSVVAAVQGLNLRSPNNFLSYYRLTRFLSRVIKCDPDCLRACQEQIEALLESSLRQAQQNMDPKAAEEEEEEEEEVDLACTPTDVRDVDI

Structure (SMILES) | IC50 [1, 8] | IC50 [2, 9] | IC50 [3, 10] | IC50 ([4]; BT474 cells, SRB, 6 days) | IC50 ([5]; HCT116 cells, SRB, three days) | IC50 ([6]; LoVo cells, SRB, three days) | IC50 ([7]; MCF-7 cells, SRB, three days) | melting point | further results
CC(=O)Oc1cc(CNC=C2C(=O)NC(=O)c3ccc(Br)cc32)cc(OC(C)=O)c1 [Example 69, Acetic acid 3-acetoxy-5-{[(6-bromo-1,3-dioxo-2,3-dihydro-1H-isoquinolin-4-ylidenemethyl)-amino]-methyl}-phenyl ester] | 0.12 µM | 44.5 µM | > 50 µM | 5.6 µM | 6.5 µM | 5.2 µM | 8.2 µM | 257 to 258 °C | 
COc1cc2c(cc1OC)/C(=C/Nc1ccc(N3CCN(C)CC3)cc1)C(=O)NC2=O [Example 37, (4Z)-6,7-Dimethoxy-4-({[4-(-methylpiperazin-1-yl)phenyl}amino)methylene] isoquinolin-1,3(2H,4H)-dione] | 14.8 µM | > 50 µM | > 50 µM |  |  |  |  | 273 to 274 °C | 
O=C1NC(=O)c2ccc(Br)cc2/C1=C/NCc1ccc(O)cc1 [Example 62] | 31.1 µM | 4.5 µM | > 50 µM |  |  |  |  | 296 to 297 °C | 
CN1CCN(c2ccc(N/C=C3\C(=O)NC(=O)c4ccc(C(=O)N(C)C)cc43)cc2)CC1 [Example 65, (4Z)-N,N-Dimethyl-4-({[4-(4-methylpiperazin-1-yl)phenyl]amino}methylene)-1,3-dioxo-1,2,3,4-tetrahydroisoquinoline-6-carboxamide] | 41 µM | 47 µM | > 50 µM |  |  |  |  | > 300 °C | 
CN1CCN(c2ccc(N/C=C3\C(=O)NC(=O)c4ccc(-c5ccoc5)cc43)nc2)CC1 [Example 443, (4Z)-6-(3-Furyl)-4-({[5-(4-methylpiperazin-1-yl)pyridin-2-yl]amino}methylene)isoquinoline-1,3(2H,4H)-dione] | 0.13 µM | > 50 µM | > 50 µM |  |  |  |  | 262 to 263 °C | IC50 ([4]; BT474 cells, 6 days, SRB): 0.65 µM; IC50 ([6]; LoVo cells, 3 days, SRB): 0.85 µM
O=C1NC(=O)c2ccc(C3CCCC3)cc2/C1=C/NCc1cc(O)c(-c2ccoc2)cn1 [Example 537] |  |  |  |  |  |  |  | 279 to 283 °C (dec.) | IC50 [2, 11]: 1.3 µM; IC50 [4]: 0.13 µM; IC50 [5]: 0.81 µM; IC50 [6]: 0.3 µM; IC50 [7]: 0.83 µM
Nc1ccc(CN/C=C2\C(=O)NC(=O)c3ccc(Br)cc32)cc1O [Example 227, (4Z)-4-{[(4-Amino-3-hydroxybenzyl)amino]methylene}-6-bromoisoquinoline-1,3(2H,4H)-dione] | 0.08 µM | 6.7 µM | > 50 µM |  | 44 µM | 37 µM | > 50 µM | 245 to 246 °C | 
O=C(O)CCCN/C=C1\C(=O)NC(=O)c2ccc(Br)cc21 [Example 314, (Z)-4-((6-Bromo-1,3-dioxo-2,3-dihydroisoquinolin-4(1H)-ylidene)methylamino)butanoic acid] | 1.5 µM | 37.1 µM | > 50 µM |  |  |  |  | 260 to 262 °C (dec.) | 
CCN(CC)C(=O)Oc1cc(CN/C=C2\C(=O)NC(=O)c3ccc(I)cc32)ccc1OC [Example 99, 5-({[(Z)-(6-Iodo-1,3-dioxo-2,3-dihydroisoquinolin-4(1H)-ylidene)methyl]amino}methyl)-2-methoxyphenyl diethylcarbamate] |  |  |  |  |  |  |  | 128 to 130 °C | IC50 ([1]; CDK4 IC50, In Vitro Enzyme Assays): 1.4 µM; IC50 ([2]; CDK2 IC50, In Vitro Enzyme Assays): > 50 µM; IC50 ([3]; CDK1 IC50, In Vitro Enzyme Assays): > 50 µM
CC1CN(c2ccc(N/C=C3\C(=O)NC(=O)c4ccc([N+](=O)[O-])cc43)cc2)CC(C)N1 (stereo not shown) [Example 235, (4Z)-4-({[4-(3,5-Dimethylpiperazin-1-yl)phenyl]amino}methylene)-6-nitroisoquinoline-1,3(2H,4H)-dione] | 17.3 µM |  | 25.3 µM | 3 µM | 1.4 µM | 3.5 µM | 3.3 µM | > 300 °C | 
CC(N)(C(=O)O)c1ccc(NC=C2C(=O)NC(=O)c3ccc(Br)cc32)cc1 (stereo not shown) [Example 277, 2-Amino-2-{4-[(6-bromo-1,3-dioxo-2,3-dihydro-1H-isoquinolin-4-ylidenemethyl)-amino]-phenyl}-propionic acid] | 35.5 µM | 39.7 µM | > 50 µM |  |  |  |  | 250 to 253 °C | 
O=C1NC(=O)c2ccc(Br)cc2C1=CNc1ccc(-c2c[nH]cn2)cc1 [Example 164, 6-Bromo-4-{[4-(1H-imidazol-4-yl)-phenylamino]-methylene}-4H-isoquinolin-1,3-dione] | 43.4 µM | 11 µM | > 50 µM |  |  |  |  | > 300 °C (dec.) | 
O=C1NC(=O)c2ccc(Br)cc2/C1=C/Nc1ccc(O)c(C(=O)O)c1 [Example 58, 5-{[(Z)-(6-Bromo-1,3-dioxo-2,3-dihydroisoquinolin-4(1H)-ylidene)methyl]amino}-2-hydroxybenzoic acid] | 12.4 µM | 19.4 µM | 31.8 µM |  |  |  |  | 336 to 337 °C | 
COc1ccc(CN/C=C2\C(=O)NC(=O)c3ccc(F)cc32)cc1O [Example 68] | 0.17 µM |  | > 50 µM | 14 µM | 15 µM | 19 µM | > 50 µM | 200 to 201 °C | 
O=C1NC(=O)c2ccc(-c3cccc(O)c3)cc2/C1=C/Nc1ccc(CN2CCCCC2)cc1 [Example 96] | 0.027 µM |  | > 50 µM | 3.4 µM | 1.3 µM | 1.8 µM | 2 µM | 235 to 236 °C | 
CCCOc1ccc(CN/C=C2\C(=O)NC(=O)c3ccc(NC(=O)c4ccco4)cc32)cc1O [Example 197] | 12.3 µM | > 50 µM | > 50 µM |  |  |  |  | 233 to 234 °C | 
O=C(O)CCCN/C=C1\C(=O)NC(=O)c2ccc(-n3cccc3)cc21 [Example 315, (Z)-4-((1,3-Dioxo-6-(1H-pyrrol-1-yl)-2,3-dihydroisoquinolin-4(1H)-ylidene)methylamino)butanoic acid] | 0.19 µM | 31 µM | 43.4 µM |  |  |  |  | 230 to 240 °C (dec.) | 
CC(=O)Nc1ccc2c(c1)/C(=C/Nc1ccc(CN3CCCCC3)cc1)C(=O)NC2=O [Example 48] |  | 8.1 µM | > 50 µM |  |  |  |  | > 320 °C | 
CC(C)(C)c1ccc2c(c1)/C(=C/NCc1cc(O)c(-c3ccoc3)cn1)C(=O)NC2=O [Example 532, 6-tert-Butyl-4-{[(5-furan-3-yl-4-hydroxy-pyridin-2-ylmethyl)-amino]-methylene}-4H-isoquinoline-1,3-dione] |  |  |  |  |  |  |  | 215 to 230 °C (dec.) | IC50 [2, 11]: 1.9 µM; IC50 [4]: 0.1 µM; IC50 [5]: 0.48 µM; IC50 [6]: 0.27 µM; IC50 [7]: 1.4 µM
COc1ccc(CN/C=C2\C(=O)NC(=O)c3ccc(-c4ccoc4)cc32)cc1O [Example 92] | < 0.005 µM |  | 2.5 µM | 2 µM | 2.5 µM | 3.2 µM | 3.8 µM | 254 to 255 °C | 
CN1CCN(c2ccc3c(c2)/C(=C/Nc2ccc(CN4CCCCC4)cc2)C(=O)NC3=O)CC1 [Example 123] | 34.7 µM |  | > 50 µM | 9.4 µM | 3.4 µM | 4.4 µM | 7.2 µM | 192 to 193 °C | 
CC(=O)Nc1ccc(CN/C=C2\C(=O)NC(=O)c3ccc(Br)cc32)cc1O [Example 142, N-[4-({[(Z)-(6-Bromo-1,3-dioxo-2,3-dihydroisoquinolin-4(1H)-′ylidene)methyl]amino}methyl)-2-hydroxyphenyl]acetamide] | 0.02 µM |  | > 50 µM | 0.66 µM | 1.2 µM | 2 µM | 31.1 µM | 252 to 253 °C | 
